Laboratory results as given in article PMC8837113, “Drug Repurposing of the Unithiol: Inhibition of Metallo-β-Lactamases for the Treatment of Carbapenem-Resistant Gram-Negative Bacterial Infections” (International Journal of Molecular Sciences, 2022).

Tests used:
[1] = target: T1, metallo-β-lactamase NDM-1 (Klebsiella pneumoniae, UniProt C7C422); assay: meropenem hydrolysis kinetics, Lineweaver–Burk (spectrophotometric, […] nm); format: biochemical
T1 construct: gene blaNDM-1; recombinant NDM-1, purified from the periplasmic fraction of E. coli BL21(DE3) (pET-NDM)

[2] = target: T2, metallo-β-lactamase VIM-2 (Pseudomonas aeruginosa, UniProt Q9K2N0); assay: kinetic inhibition assay in periplasmic fractions (Figure S1); disk diffusion and MIC support; format: cell-based
T2 construct: gene blaVIM-2; active mature VIM-2 in periplasmic fractions of P. aeruginosa strains B-730P/17 and B-2099/18

T1 sequence (C7C422 29-270 limits assumed): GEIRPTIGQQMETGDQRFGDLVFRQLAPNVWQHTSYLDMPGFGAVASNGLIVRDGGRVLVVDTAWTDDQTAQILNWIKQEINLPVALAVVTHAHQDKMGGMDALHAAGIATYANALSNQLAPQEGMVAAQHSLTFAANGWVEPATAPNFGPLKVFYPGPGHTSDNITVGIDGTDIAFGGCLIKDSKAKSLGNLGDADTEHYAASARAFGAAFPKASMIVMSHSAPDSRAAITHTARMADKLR

O=S(=O)(O)CC(S)CS (centres unmarked) [compound 2, 2,3-dimercaptopropane-1-sulfonate]
Ki [1]: 16.7 ± 1.2 µM | kinetic inhibition assay in periplasmic fractions (Figure S1); disk diffusion an [2]: A noticeable dose-dependent inhibitory effect of unithiol (Figure S1) was observed for the two strains studied
